Laboratory results published in patent publication US20240359037A1, “Ultrasound Method” (ACT THERAPEUTICS LTD, priority 2021, published 2024).

System: subcutaneous prostate cancer model (PC3)
Assay: Tumour specific uptake of Evans Blue vs. Enhancement MI
Assay type: in vivo, mice
Conditions: Enhancement 0.5 MHz MI 0.2 compared to MI=0 (no ultrasound); 30 min after treatment
Protocol: To investigate the effect of MI variance of the US Enhancement field, tumour specific uptake of Evans Blue (EB, fluorescent dye) has been investigated in a subcutaneous prostate cancer model (PC3) in mice. Five groups with Enhancement insonation MIs of 0, 0.1, 0.2, 0.3 and 0.4 were investigated (N=3 animals per group). […] 30 min after treatment, the tumours were excised and the amount of EB was measured by spectrophotometry at 620 nm.

increase in tumour specific uptake: ~60%
Structure (SMILES): Cc1cc(-c2ccc(/N=N/c3ccc4c(S(=O)(=O)O)cc(S(=O)(=O)O)c(N)c4c3O)c(C)c2)ccc1/N=N/c1ccc2c(S(=O)(=O)O)cc(S(=O)(=O)O)c(N)c2c1O [Evans Blue]
